Source: patent US20220378954A1, “METHODS FOR RADIOLABELLING GRPR ANTAGONISTS AND THEIR KITS” (NOVARTIS AG, priority 2019, published 2022)
Where “and” joins values, the source holds several entries; their conditions need not be identical. Equal values may be shown once.

Experiment: Peptide adhesion tests (non-specific binding of NeoB to glass and plastic surfaces)
Format: physicochemical
Details: final formulation: NeoB 50 μg, Mannitol 20 mg, Kolliphor HS15 500 μg, Gentisic acid 200 μg; three independent radiolabelling tests; adhesion to the glass

Q: With CC(C)CC(CC(C)C)NC(=O)[C@H](Cc1cnc[nH]1)NC(=O)CNC(=O)[C@@H](NC(=O)[C@H](C)NC(=O)[C@H](Cc1c[nH]c2ccccc12)NC(=O)[C@H](CCC(N)=O)NC(=O)[C@@H](Cc1ccccc1)NC(=O)COCC(=O)Nc1ccc(CNC(=O)CN2CCN(CC(=O)O)CCN(CC(=O)O)CCN(CC(=O)O)CC2)cc1)C(C)C [NeoB] as the compound, how does the “Peptide Adhesion (%)” value read?
A: 4.8% and 5.0% and 5.8%
